Results as given in US5866787A, “Transgenic plants co-expressing a functional human 2-5A system” (Cleveland Clinic Foundation, priority 1995, dated 1999).
Blank lines part the entries; values can stand above or below the molecule they belong to.

Legend:
2-5A-dependent RNase [1] = conditions: cited from earlier work
2-5A-dependent RNase [2] = conditions: depending on the cell type; cited from earlier work
RNase L [3] = experiment: 2-5A uptake by cut leaves, 18S rRNA northern blot; assay type: cell-based, transgenic plant expressing human RNase L; conditions: 1 μM taken up by cut leaves for seven hours; not in control plant
Description: FIG. 30 illustrates that RNase L in cut leaves is activated to cleave rRNA by incubation in a solution containing 2-5A. A northern blot probed with ^32 P-labeled cDNA to […] rRNA is shown. The cut leaves are from a control plant (lanes 1 and 2) or from a plant transgenic for human RNase L cDNA (lanes 3 and 4). The presence or absence of 2-5A and the position of the 2-5A-mediated rRNA cleavage products are shown.
Leaves from control and transgenic plants are cut and allowed to take up 2-5A [1 μM of p3 (A2'p)3 A] through the petiole for about seven hours at room temperature under fluorescent light. Total RNA is prepared and used to prepare northern blots. THe RNA in the blots is hybridized to a ^32 P labeled human 18S rRNA cDNA probe (the cDNA is provided by Dr. John Thaden, Baltimore).
To monitor uptake of 2-5A, leaves are cut at the base of the petiole and then placed in a solution of ^32 P-labeled 2-5A probe for about three hours at room temperature under light. The petiole was cut further and autoradiograms were made from the lamina. Uptake and translocation of the 2-5A probe is readily apparent through veins to all parts of lamina (data now shown). Catalytic activity of RNase L in the intact leaves is determined after allowing unlabeled 2-5A, p3 A(2'p5'A)3 (1 μM), to be taken up by cut leaves for seven hours. […]

RNase L [4] = experiment: 2-5A injection into detached leaves, 18S rRNA northern blot; assay type: cell-based, transgenic tobacco; conditions: about 2.5 μM injected, about 3 hrs; not in control or synthetase-only plants
Description: FIG. 24. […] Leaves are injected with about 2.5 μM 2-5A, total RNA is extracted after 3 hr and probed with ^32 P-labeled 18S cDNA. Lanes 1-2, control plant, lanes 3 and 4, plant expressing only 2-5A synthetase (Syn); lane 5, plant expressing only RNase L (RL); lanes 6-7, plants expressing both 2-5A synthetase and RNase L (Syn+RL).
Functional expression of RNase L in transgenic tobacco plants is detected by 2-5A-induced breakdown of 18S ribosomal RNA (rRNA) in detached leaves that are injected with 2-5A. Transgenic leaves are injected with about 2.5 μM p3 A(2'p5'A)3 and are incubated for about 3 hrs before total RNA is prepared. […] In addition, plants expressing RNase L are believed to have specific 2-5A binding activity that is absent in control, non-transgenic plants.

[5] = tested on: recombinant human RNase L; experiment: 2-5A dependent ribonuclease L assay, poly(U) cleavage; assay type: biochemical; conditions: about 30° C. for about 2 hr
Description: FIG. 25. Transgenic plants produce functional, human recombinant 2-5A synthetase. Extracts of plants containing cDNA to both human RNase L and 2-5A synthetase (lanes 8-11), of control plants that are transformed with vector alone (lanes 12-15), and of interferon treated human HeLa cells (lanes 16 and 17) are assayed for 2-5A synthetase activity. 2-5A synthetase activity in extracts of transgenic plants is determined by a functional assay for 2-5A. […] The total cell lysates are centrifuged at about 10,000×g for about 10 min at about 4° C., the supernatants are collected and the protein concentration is determined as described in Bradford, M. et al.: Anal. Biochem., 72:248 (1976). […] 2-5A is monitored by its ability to activate RNase L, which are expressed and isolated from insect cells, Dong, B. et al.: J. Biol. Chem., 269:14153 (1994), to cleave poly (U) to discrete products (arrows). […]
To determine if 2-5A synthetase is present in the transgenic tobacco plants, functional assays for the enzyme are performed. 2-5A synthetase activity in extracts of transgenic plants is determined by a functional assay for 2-5A. […] The total cell lysates are centrifuged at about 10,000×g for about 10 min at about 4° C., the supernatants are collected and the protein concentration is determined. […]

poly(U) = experiment: Ribonuclease assay with 2-5A-cellulose, poly(U) substrate; assay type: biochemical; conditions: enzyme translated in reticulocyte lysate, bound to 2-5A-cellulose, 30° C.
Description: (§1) FIG. 5B is reticulocyte lysate pretreated to remove endogenous 2-5A-dependent RNase and is incubated in the absence of added mRNA (.box-solid.), in the presence of human 2-5A-dependent RNase mRNA without inhibitor (.smallcircle., .quadrature.) or in the presence of both 2-5A-dependent RNase mRNA and cycloheximide (50 μg per ml (.circle-solid.). See Example I. Subsequently, the recombinant 2-5A-dependent RNase (or controls) is adsorbed to 2-5A-cellulose and ribonuclease assays are performed after extensive washing of the matrix to reduce general nuclease activity. Radiolabeled substrate RNA was either poly(U) (.smallcircle., .circle-solid., .box-solid.) or poly(C) (.quadrature.).
(§2) The ribonuclease assay with 2-5A-cellulose is performed, as described by Silverman, R. H., Anal. Biochem., 144:450-460 (1985). Briefly, lysates are adsorbed to about […] of 2-5A-cellulose on ice for about two hours. The matrix is then washed three times by centrifuging and resuspending in buffer A. See Silverman, R. H., Anal. Biochem., 144:450-460 (1985). The matrix is then incubated with poly(U)-[^32 P]Cp or poly(C)-[^32 P]Cp (both at about 16 μM in nucleotide equivalents) at about 30° C. and the levels of acid-precipitable radioactive RNA are determined by filtration on glass-fiber filters.

poly(C) = experiment: Ribonuclease assay with 2-5A-cellulose, poly(C) substrate; assay type: biochemical; conditions: after one hour of incubation
Description: as §1, §2

32P-2-5A probe = experiment: 2-5A probe crosslinking to lysine to asparagine mutants, phosphorimager analysis; assay type: binding; conditions: uv crosslinking, phosphorimager analysis of dried gel

Molecule: Nc1ncnc2c1ncn2[C@@H]1O[C@H](COP(=O)(O)OP(=O)(O)OP(=O)(O)O)[C@@H](O)[C@H]1O [ATP]
stimulatory effect on 2-5A-dependent RNase activity (2-5A-dependent RNase [1]): two-fold

Molecule: interferon
enhancement of levels of 2-5A-dependent RNase (2-5A-dependent RNase [2]): two- to twenty-fold

degradation of rRNA in plants expressing RNase L (RNase L [4]): degradation of rRNA
Molecule: p3 A(2'p5'A)3
degradation of 18S rRNA in RNase L expressing plants (RNase L [3]): induce degradation of the 18S rRNA to discrete cleavage products

Molecule: pA(2'p5'A)3
activation of RNase L to cleave poly(U) [5]: production of discrete poly (U) cleavage products

B1: recombinant human 2-5A-dependent RNase: full-length human 2-5A-dependent RNase (clone ZC5) produced in vitro in reticulocyte lysate (protein)
chain: MESRDHNNPQEGPTSSSGRRAAVEDNHLLIKAVQNEDVDLVQQLLEGGANVNFQEEEGGWTPLHNAVQMSREDIVELLLRHGADPVLRKKNGATLFILAAIAGSVKLLKLFLSKGADVNECDFYGFTAFMEAAVYGKVKALKFLYKRGANVNLRRKTKEDQERLRKGGATALMDAAEKGHVEVLKILLDEMGADVNACDNMGRNALIHALLSSDDSDVEAITHLLLDHGADVNVRGERGKTPLILAVEKKHLGLVQRLLEQEHIEINDTDSDGKTALLLAVELKLKKIAELLCKRGASTDCGDLVMTARRNYDHSLVKVLLSHGAKEDFHPPAEDWKPQSSHWGAALKDLHRIYRPMIGKLKFFIDEKYKIADTSEGGIYLGFYEKQEVAVKTFCEGSPRAQREVSCLQSSRENSHLVTFYGSESHRGHLFVCVTLCEQTLEACLDVHRGEDVENEEDEFARNVLSSIFKAVQELHLSCGYTHQDLQPQNILIDSKKAAHLADFDKSIKWAGDPQEVKRDLEDLGRLVLYVVKKGSISFEDLKAQSNEEVVQLSPDEETKDLIHRLFHPGEHVRDCLSDLLGHPFFWTWESRYRTLRNVGNESDIKTRKSESEILRLLQPGPSEHSKSFDKWTTKINECVMKKMNKFYEKRGNFYQNTVGDLLKFIRNLGEHIDEEKHKKMKLKIGDPSLYFQKTFPDLVIYVYTKLQNTEYRKHFPQTHSPNKPQCDGAGGASGLASPGC
half-life of poly(U) degradation (poly(U)): about 10 minutes
poly(C) degraded (poly(C)): 20%

2-5A binding activity, % of clone ZB1 (32P-2-5A probe): 12.2%
B2: ZB1(Lys^240,274 →Asn): clone ZB1 double mutant, lysines 240 and 274 mutated to asparagine (protein, UniProt Q05921 1-735, looked up, variant K240N K274N)
2-5A-dependent ribonuclease: METPDYNTPQGGTPSAGSQRTVVEDDSSLIKAVQKGDVVRVQQLLEKGADANACEDTWGWTPLHNAVQAGRVDIVNLLLSHGADPHRRKKNGATPFIIAGIQGDVKLLEILLSCGADVNECDENGFTAFMEAAERGNAEALRFLFAKGANVNLRRQTTKDKRRLKQGGATALMSAAEKGHLEVLRILLNDMKAEVDARDNMGRNALIRTLLNWDCENVEEITSILIQHGADVNVRGERGNTPLIAAVERKHTGLVQMLLSREGINIDARDNEGNTALLIAVDKQLKEIVQLLLEKGADKCDDLVWIARRNHDYHLVKLLLPYVANPDTDPPAGDWSPHSSRWGTALKSLHSMTRPMIGKLKIFIHDDYKIAGTSEGAVYLGIYDNREVAVKVFRENSPRGCKEVSCLRDCGDHSNLVAFYGREDDKGCLYVCVSLCEWTLEEFLRLPREEPVENGEDKFAHSILLSIFEGVQKLHLHGYSHQDLQPQNILIDSKKAVRLADFDQSIRWMGESQMVRRDLEDLGRLVLYVVMKGEIPFETLKTQNDEVLLTMSPDEETKDLIHCLFSPGENVKNCLVDLLGHPFFWTWENRYRTLRNVGNESDIKVRKCKSDLLRLLQHQTLEPPRSFDQWTSKIDKNVMDEMNHFYEKRKKNPYQDTVGDLLKFIRNIGEHINEEKKRGMKEILGDPSRYFQETFPDLVIYIYKKLKETEYRKHFPQPPPRLSVPEAVGPGGIQS
